Measurements reported in patent publication US12162836B2, “N-acyl-{4-[(4-aryl-phenyl)sulfonylmethyl]piperidine} compounds and their therapeutic use” (Modern Biosciences Limited, priority 2019, dated 2024).

How the values were obtained:
[1] = target: CYP2D6 (Homo sapiens (Human), UniProt P10635); experiment: Human Cytochrome P450 Inhibition Assay (Bactosomes); assay type: in vitro ADME; details: recombinant Bactosomes, 10 minutes
Procedure: (§1) The ability of test compounds to inhibit five of the most relevant cytochrome P450 enzymes was measured by determination of the activity of cytochrome P450 enzymes in recombinant cytochrome preparations, called Bactosomes (Cypex Ltd, Dundee, Scotland UK DD2 1 NH), in the presence of a specific probe substrate. Bactosomes are a highly efficient and cost-effective source of recombinant CYP450s which have a higher specific activity of enzyme compared to other sources, such as liver microsomes. […] The following CYP450 isoforms were assayed: CYP1A2, CYP2C9, CYP2C19, CYP2D6 and CYP3A4. The study of CYP450 inhibition potential in Bactosomes is accepted as a valuable model permitting rapid prediction of potential drug-drug interactions in vivo (see, e.g., Weaver et al., 2003).
(§2) Bactosomes were obtained from a commercial source (Cypex, Scotland, UK). Test compounds were incubated with Bactosomes at 6 concentrations. Samples were incubated for 10 minutes, after which the reaction was stopped and the samples analysed by LC-MS/MS Multiple Reaction Monitoring (MRM) for the presence/amount of substrate probe.
(§3) CYP450 enzymes (final protein 75 pmol/mL for CYP1A2; 12.5 pmol/mL for CYP2C19; and 25 pmol/mL for CYP2C9, 2D6 and 3A4), 0.1 M phosphate buffer pH 7.4, probe and test compound (final concentration 50, 15.8, 5, 1.58, 0.5 and 0.158 μM; diluted from 10 mM stock solution to give a final DMSO concentration of 1%) were pre-incubated at 37° C. for 5 minutes. The reaction was initiated by the addition of 20 μL of 10 mM NADPH in phosphate buffer. The final incubation volume was 200 μL. The following control inhibitors were used for each CYP450 inhibition assay: CYP1A2: α-naphthoflavone; CYP2C9: sulfaphenazole; CYP2C19: tranylcypromine; CYP2D6: quinidine; CYP3A4: ketoconazole.
(§4) Each compound was incubated for 10 minutes at 37° C. The reactions were stopped by the addition of methanol (final composition 1:1, aqueous: methanol). The incubation plates were shaken, chilled at […] for 2 hours, and centrifuged at 3500 rpm for 15 minutes at 4° C. to precipitate the protein.

[2] = target: CYP2C19 (Homo sapiens (Human), UniProt P33261); experiment: as above; assay type: in vitro ADME; details: recombinant Bactosomes, 10 minutes
Procedure: as §1, §2, §3, §4

[3] = target: CYP2C9 (Homo sapiens (Human), UniProt P11712); experiment: as above; assay type: in vitro ADME; details: recombinant Bactosomes, 10 minutes
Procedure: as §1, §2, §3, §4

[4] = target: CYP3A4 (Homo sapiens (Human), UniProt P08684); experiment: as above; assay type: in vitro ADME; details: recombinant Bactosomes, 10 minutes
Procedure: as §1, §2, §3, §4

[5] = target: CYP1A2 (Homo sapiens (Human), UniProt P05177); experiment: as above; assay type: in vitro ADME; details: recombinant Bactosomes, 10 minutes; read-out: IC50 CYP1A2
Procedure: as §1, §2, §3, §4

[6] = target: hERG (Homo sapiens (Human), UniProt Q12809); experiment: hERG Ion Channel binding assay (3H astemizole displacement); details: human, membranes of HEK293 cells stably expressing hERG, pH 7.4, probe 3H astemizole (1.5 nM); Tested at 25 μM; displacement of 3H astemizole, hERG-HEK293 membranes
Summary of the method: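 Membranes from stably transfected hERG-HEK293 cells incubated with 1.5 nM ³H-astemizole ± test compound in HEPES buffer pH 7.4 (0.1% BSA, 5 mM KCl, 130 mM NaCl) at 25° C for 60 min. Bound ligand measured by filtration and scintillation counting; reported as % displacement (0% none, 100% complete).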

[7] = test system: collagen-induced arthritis in DBA/1j mice; experiment: Mouse Collagen-Induced Arthritis; assay type: in vivo; details: 10 mg/kg/day, once daily for 14 days, oral gavage; arthritic index vs control
Procedure: Seven- to eight-week-old male DBA/1j mice were used for all procedures. Animals were housed in groups of 10, and were maintained at 21° C.±2° C. on a 12-hour light/dark cycle with food and water ad libitum. Complete Freund's adjuvant (CFA) was prepared by emulsifying bovine type II collagen at 4 mg/mL with a 4 mg/mL suspension of Mycobacterium tuberculosis H37Ra in Incomplete Freund's Adjuvant (IFA) (0.85 mL paraffin oil and 0.15 mL mannide monooleate) in a 1:1 (v/v) ratio. All mice were immunised subcutaneously with 200 μg of bovine type II collagen in CFA. 21 days later, all mice were immunised subcutaneously with 100 μg of bovine type II collagen in IFA. The mice started to develop signs and symptoms of arthritis following the ‘booster’ immunisation.
For macroscopic assessment of arthritis, the following signs were monitored in each paw of each mouse three times per week and summed to generate the Arthritic Index (A1) (the maximum A1 for one animal is 16): • 0=no visible effects of arthritis. • 1=oedema and/or erythema of 1 digit. • 2=oedema and/or erythema of 2 digits. • 3=oedema and/or erythema of more than 2 digits. • 4=severe arthritis of entire paw and digits.
Animals were sorted into treatment groups with a mean arthritic index of 2.5 and then dosed once daily for 14 days with compound: by oral gavage for test compounds, or by subcutaneous injection at a dose of 10 mg/kg for the positive control, etanercept. After completion of the experiment, the mice were sacrificed.
The data were analysed by generating an average of the arthritic index across each treatment group. The mean arthritic index was then compared to the arthritic index of control (untreated) animals using the following formula to generate a percentage inhibition of disease.

Sequence of hERG (Q12809 whole entry): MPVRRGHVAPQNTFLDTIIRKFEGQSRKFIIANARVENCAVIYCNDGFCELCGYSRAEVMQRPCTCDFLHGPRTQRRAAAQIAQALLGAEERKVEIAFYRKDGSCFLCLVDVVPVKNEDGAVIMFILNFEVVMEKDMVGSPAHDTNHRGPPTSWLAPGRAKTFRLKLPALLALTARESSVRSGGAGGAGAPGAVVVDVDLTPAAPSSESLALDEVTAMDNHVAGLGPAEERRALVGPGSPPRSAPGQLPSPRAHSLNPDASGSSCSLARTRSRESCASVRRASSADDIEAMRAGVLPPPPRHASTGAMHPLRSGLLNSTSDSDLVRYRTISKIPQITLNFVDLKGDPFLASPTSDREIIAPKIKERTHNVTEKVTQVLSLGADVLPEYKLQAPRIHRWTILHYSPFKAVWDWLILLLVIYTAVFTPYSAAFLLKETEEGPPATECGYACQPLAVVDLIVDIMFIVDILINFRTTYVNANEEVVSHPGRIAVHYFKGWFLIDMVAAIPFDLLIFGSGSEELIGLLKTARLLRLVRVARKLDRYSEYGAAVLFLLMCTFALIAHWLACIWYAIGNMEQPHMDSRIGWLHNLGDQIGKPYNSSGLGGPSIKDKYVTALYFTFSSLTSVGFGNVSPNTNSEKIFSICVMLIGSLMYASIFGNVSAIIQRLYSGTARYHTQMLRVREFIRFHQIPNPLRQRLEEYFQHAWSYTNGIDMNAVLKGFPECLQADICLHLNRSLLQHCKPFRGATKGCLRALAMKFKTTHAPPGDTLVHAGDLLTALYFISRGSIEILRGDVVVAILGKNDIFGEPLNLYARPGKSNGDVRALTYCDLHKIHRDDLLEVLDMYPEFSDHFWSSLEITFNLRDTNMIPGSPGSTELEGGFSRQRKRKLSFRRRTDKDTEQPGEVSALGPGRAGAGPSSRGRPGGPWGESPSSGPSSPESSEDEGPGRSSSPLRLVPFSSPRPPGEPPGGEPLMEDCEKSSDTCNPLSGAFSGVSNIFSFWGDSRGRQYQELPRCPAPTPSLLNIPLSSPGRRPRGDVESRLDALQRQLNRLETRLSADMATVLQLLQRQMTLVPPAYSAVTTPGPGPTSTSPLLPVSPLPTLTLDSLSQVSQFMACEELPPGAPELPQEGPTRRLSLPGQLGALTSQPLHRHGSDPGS
Sequence of CYP2D6 (P10635 whole entry, canonical isoform): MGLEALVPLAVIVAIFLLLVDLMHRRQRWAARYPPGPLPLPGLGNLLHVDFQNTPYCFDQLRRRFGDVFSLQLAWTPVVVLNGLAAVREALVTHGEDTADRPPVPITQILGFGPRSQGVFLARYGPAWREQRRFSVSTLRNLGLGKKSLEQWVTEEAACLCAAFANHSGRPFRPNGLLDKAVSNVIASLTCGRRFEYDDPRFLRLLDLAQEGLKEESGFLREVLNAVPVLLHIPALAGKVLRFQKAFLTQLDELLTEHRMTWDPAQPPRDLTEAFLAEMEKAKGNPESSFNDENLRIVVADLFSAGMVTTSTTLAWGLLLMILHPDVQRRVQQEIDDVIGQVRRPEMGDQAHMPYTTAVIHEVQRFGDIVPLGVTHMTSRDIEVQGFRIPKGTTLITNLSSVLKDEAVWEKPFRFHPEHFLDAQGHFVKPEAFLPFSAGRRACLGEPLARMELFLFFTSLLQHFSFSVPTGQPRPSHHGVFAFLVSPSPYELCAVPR
Sequence of CYP1A2 (P05177 whole entry): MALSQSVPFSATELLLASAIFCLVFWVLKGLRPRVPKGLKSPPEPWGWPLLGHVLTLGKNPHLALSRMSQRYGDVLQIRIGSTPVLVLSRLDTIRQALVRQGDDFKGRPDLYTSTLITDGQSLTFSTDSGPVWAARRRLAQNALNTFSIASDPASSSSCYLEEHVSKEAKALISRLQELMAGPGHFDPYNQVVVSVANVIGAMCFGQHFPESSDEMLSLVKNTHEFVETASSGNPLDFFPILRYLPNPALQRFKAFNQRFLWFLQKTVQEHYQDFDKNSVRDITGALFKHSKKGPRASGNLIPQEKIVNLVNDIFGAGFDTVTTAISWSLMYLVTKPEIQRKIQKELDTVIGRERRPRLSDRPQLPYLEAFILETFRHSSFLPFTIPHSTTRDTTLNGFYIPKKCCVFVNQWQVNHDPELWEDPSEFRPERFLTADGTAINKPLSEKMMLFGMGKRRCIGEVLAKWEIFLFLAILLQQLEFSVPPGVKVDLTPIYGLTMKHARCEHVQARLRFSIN
Sequence of CYP3A4 (P08684 whole entry): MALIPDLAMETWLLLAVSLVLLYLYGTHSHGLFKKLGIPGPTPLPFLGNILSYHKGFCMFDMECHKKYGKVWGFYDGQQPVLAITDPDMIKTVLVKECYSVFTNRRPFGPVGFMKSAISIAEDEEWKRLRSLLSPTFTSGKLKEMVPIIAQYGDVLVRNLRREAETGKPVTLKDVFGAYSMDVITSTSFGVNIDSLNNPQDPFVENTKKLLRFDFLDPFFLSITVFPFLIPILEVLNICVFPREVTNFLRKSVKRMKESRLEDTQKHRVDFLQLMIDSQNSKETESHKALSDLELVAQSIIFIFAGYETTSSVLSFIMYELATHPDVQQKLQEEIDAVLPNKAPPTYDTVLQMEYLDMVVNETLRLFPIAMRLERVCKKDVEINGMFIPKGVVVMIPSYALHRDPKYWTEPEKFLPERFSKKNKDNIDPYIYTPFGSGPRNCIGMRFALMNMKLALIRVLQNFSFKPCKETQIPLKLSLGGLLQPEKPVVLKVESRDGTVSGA
Sequence of CYP2C9 (P11712 whole entry): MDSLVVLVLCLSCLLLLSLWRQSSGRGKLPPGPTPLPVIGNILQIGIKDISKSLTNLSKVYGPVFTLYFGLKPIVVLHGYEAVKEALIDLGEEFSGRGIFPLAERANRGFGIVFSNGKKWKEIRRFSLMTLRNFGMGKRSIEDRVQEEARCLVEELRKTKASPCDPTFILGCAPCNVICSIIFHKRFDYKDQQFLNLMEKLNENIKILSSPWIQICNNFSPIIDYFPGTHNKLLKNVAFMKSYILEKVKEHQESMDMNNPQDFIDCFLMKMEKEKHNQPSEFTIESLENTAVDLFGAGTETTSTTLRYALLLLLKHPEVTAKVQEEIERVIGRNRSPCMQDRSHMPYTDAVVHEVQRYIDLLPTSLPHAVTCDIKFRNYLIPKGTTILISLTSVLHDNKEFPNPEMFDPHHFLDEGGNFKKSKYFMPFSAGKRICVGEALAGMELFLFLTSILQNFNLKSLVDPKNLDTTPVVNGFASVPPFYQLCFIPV
Sequence of CYP2C19 (P33261 whole entry): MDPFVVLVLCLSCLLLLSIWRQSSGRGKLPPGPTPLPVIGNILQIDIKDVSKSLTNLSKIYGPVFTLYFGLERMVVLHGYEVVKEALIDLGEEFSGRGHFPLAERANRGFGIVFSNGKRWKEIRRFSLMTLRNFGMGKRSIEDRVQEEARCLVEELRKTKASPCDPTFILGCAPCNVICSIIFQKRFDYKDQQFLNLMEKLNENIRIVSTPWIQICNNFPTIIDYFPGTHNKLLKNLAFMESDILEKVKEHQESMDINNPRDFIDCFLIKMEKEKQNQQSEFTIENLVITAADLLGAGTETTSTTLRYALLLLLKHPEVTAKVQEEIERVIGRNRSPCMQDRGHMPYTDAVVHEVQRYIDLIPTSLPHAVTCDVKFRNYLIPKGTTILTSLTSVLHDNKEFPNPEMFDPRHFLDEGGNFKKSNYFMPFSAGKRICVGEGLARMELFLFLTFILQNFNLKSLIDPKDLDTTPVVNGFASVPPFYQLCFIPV

## C[C@]1(O)CC[C@H](NS(=O)(=O)c2ccc(-c3ccc(Cl)cc3C#N)cc2)CC1 [HMC-C-01-A, reference compound]
[1]
  IC50: 16.6 µM
[2]
  IC50: > 25 µM
[3]
  IC50: 21 µM
[4]
  IC50: > 25 µM
[5]
  IC50: 25 µM
[6]
  inhibition at 60 min, 25 µM: 18%
[7]
  % inhibition of disease: 40%
